Patent US20150087723A1, “MICROBIAL COMPOSITION” (Rohm and Haas Company, priority 2011, published 2015)
Where two headings read alike, the source gives them in different places.

Tests used:
[1] = system: Escherichia coli (E. coli—ATCC #10536); experiment: Automated assessment of efficacy in model surfactant base (2.85% sodium cocoyl glycinate + 1.85% sodium lauroamphoacetate, pH 10), 15 seconds exposure, OD450/OD590 readout; type: cell-based; details: for No. of replicates showing growth (out of 4) / Δ OD 450 nm = OD450 (time = 16 hours) - OD450 (time zero), Mean / Δ OD 590 nm OD590 (time = 16 hours) - OD590 (time zero), Mean: model surfactant solution; for MBC: Escherichia coli, ATCC10536, 15 s; for Phenol MBC %(w/v): phenol alone, model surfactant, E. Coli
Method: Solutions were prepared such that the concentrations of the surfactant components and test actives were 1.1×x the final desired concentration in order to allow for dilution with the bacterial inoculum in the test. The solutions were manually adjusted to pH 10.0 by drop wise addition of sodium hydroxide solution, as measured with a phi meter at ambient temperature.
Tests were conducted using standard microtiter plate assays using an automated liquid handling system, 270 μl of the surfactant test solution was pipetted into each well of the microtitre plate and 30 μl of the bacterial suspension was then added. After exactly 15 seconds of bacterial exposure, a 30 μl volume of bacterial cells was withdrawn and transferred to 270 μl of D/E quench solution. After 5 minutes in the D/E quench, the optical density (OD) was measured for each plate in turn at two specific wavelengths (450 nm and 590 nm). These provide a dual check of antimicrobial activity, as the OD450 reading is specific for the yellow colour of D/E quench when bacterial growth is observed, whereas OD590 is specific for the initial purple colour of the D/E quench which is retained if no bacterial growth is observed. After the time zero OD measurements, plates were then incubated at 37° C. overnight (16 hours) before repeating the OD measurements. Delta OD values were calculated by subtracting […] the initial value at time zero. Bacterial growth is observed as an increase in OD450 and a decrease in ΔOD590. To identify antibacterially efficacious systems (those preventing appreciable bacterial growth after incubation), the following threshold changes in OD readings have been adopted: if (1), OD450 increases by less than 0.2 absorbance unit on incubation and (2). OD590 decreases by less than 0.35 unit on incubation. Conversely, where OD450 increases by more than 0.2 AU and OD590 decreases by more than 0.35 unit after incubation, corresponding to a colour shift from purple to yellow, the test system allows bacterial growth and is not deemed efficacious. Four replicate measurements in the same plate have been made for each test system. The number of replicate wells showing either bacterial growth or no growth is also readily assessed by eye by following the colour change.
Dose responses for individual components and binary mixtures of actives at a used concentration ratio were generated by sequential dilution of liquors with further surfactant solution to obtain a series of endpoints.
In some selected cases, the combinations were also tested at the weight ratio 1:1.

[2] = system: Escherichia coli (E. coli—ATCC #10536); experiment: Synergy test: high resolution MBC microtiter plate assay, phosphate buffer containing 35% dipropylene glycol, 15 seconds contact; type: cell-based; details: E. coli 10536; for SI (Synergy Index = Qa/QA + Qb/QB): at Qa and Qb, <1 synergy, 1 additivity, >1 antagonism; for Qa: MBC of the first component (A) acting alone (QA): component alone (Qb = 0), complete kill in 15 seconds
From the text: One measure of synergy is -the industrially accepted method described by Kull, F. C.; Eisman, P. C.; Sylwestrowicz, H. D. and Mayer, R. L., in Applied Microbiology 9:538-541 (1961), using the ratio determined by the formula:
Qa/QA+Qb/QB=Synergy Index (“SI”)
wherein: QA=concentration of compound A (first component) in percent, acting alone, which produced an end point (MBC of Compound A). Qa =concentration of compound A in percent, in the mixture, which produced an end point. QB=concentration of compound B (second component) in percent, acting alone, which produced an end point (MBC of Compound B). Qb=concentration of compound B in percent, in the mixture, which produced an end point.
When the sum of Qa/QA and Qb/QB is greater than one, antagonism is indicated. […] The lower the SI, the greater is the synergy shown by that particular mixture. The minimum biocidal concentration (MBC) of a microbicide is the lowest concentration tested under a specific set of conditions that provides complete kill of the tested microorganisms.
Synergy tests were-conducted using standard microtiter plate assays with, phosphate buffer containing 35% dipropylene glycol (DPG). In this method, a wide range of combinations of chemicals was tested by conducting high resolution MBC assays of Component (A) in the presence of various concentrations of Component (B). High resolution MBCs were determined by adding varying amounts of microbicide to one column of a microtiter plate and doing subsequent ten-fold dilutions using an automated liquid handling system to obtain a series of closely spaced endpoints. The MBC plate was inoculated one column at a time with the test microorganism. An aliquot of the inoculated well was transferred at 15 seconds to a plate containing a neutralizing agent (D/E Neutralizing Broth), mixed and held for 5 minutes before being transferred to a growth plate containing trypticase soy broth (TSB). The TSB plate was incubated at 37° C. and read for the presence/absence of growth at 24 hours. The lowest level tested that provided complete kill (as evidenced by no growth in the microtitre plate) of the test organisms in 15 seconds is the minimum biocidal concentration (MBC).
The synergy of the combinations of the present invention was determined against a bacterium, Escherichia coli (E. coli—ATCC #10536), at a concentration of approximately 1×10^8 bacteria per mL. This microorganism is representative of natural contaminants in many consumer and industrial applications.

[3] = in 2.85% sodium cocoyl glycinate + 1.85% sodium lauroamphoacetate solution at pH 10, E. coli, read-out: MBC (% w/v)

| SMILES | No. of replicates showing growth (out of 4) ([1]; component alone at 0.05% w/v) | Δ OD 450 nm = OD450 (time = 16 hours) - OD450 (time zero), Mean ([1]; component alone at 0.05% w/v) | Δ OD 590 nm OD590 (time = 16 hours) - OD590 (time zero), Mean ([1]; component alone at 0.05% w/v) | SI (Synergy Index = Qa/QA + Qb/QB) [2] | Qa: MBC of the first component (A) acting alone (QA) [2] [weight %] | MBC [1, 3] [µg/mL] | No. of replicates showing growth (out of 4) ([1]; component alone at 0.2% w/v) | Δ OD 450 nm = OD450 (time = 16 hours) - OD450 (time zero), Mean ([1]; component alone at 0.2% w/v) | Δ OD 590 nm OD590 (time = 16 hours) - OD590 (time zero), Mean ([1]; component alone at 0.2% w/v) | No. of replicates showing growth (out of 4) ([1]; component alone at 0.125% w/v) | Δ OD 450 nm = OD450 (time = 16 hours) - OD450 (time zero), Mean ([1]; component alone at 0.125% w/v) | Δ OD 590 nm OD590 (time = 16 hours) - OD590 (time zero), Mean ([1]; component alone at 0.125% w/v) | No. of replicates showing growth (out of 4) ([1]; component alone at […] w/v) | Δ OD 450 nm = OD450 (time = 16 hours) - OD450 (time zero), Mean ([1]; component alone at […] w/v) | Δ OD 590 nm OD590 (time = 16 hours) - OD590 (time zero), Mean ([1]; component alone at […] w/v) | other results |
| --- | --- | --- | --- | --- | --- | --- | --- | --- | --- | --- | --- | --- | --- | --- | --- | --- |
| CCCc1ccccc1O [2-propyphenol] | 4 out of 4 | −1.43 | 0.46 | – | – | – | – | – | – | – | – | – | – | – | – | – |
| CCC(C)c1ccccc1O (centres unmarked) [2-sec-butylphenol] | 4 out of 4 | −1.50 | 0.30 | 1.00 | 0.2 | 1750 | 0 out of 4 | −0.01 | 0.09 | – | – | – | – | – | – | Phenol MBC %(w/v) [1]: 0.175 %(w/v) |
| Cc1ccc(C(C)(C)C)c(O)c1 [2-tert-butyl-5-methylphenol] | 4 out of 4 | −1.50 | 0.29 | – | – | 2000 | – | – | – | 4 out of 4 | −1.45 | 0.32 | 4 out of 4 | −1.47 | 0.28 | No. of replicates showing growth (out of 4) ([1]; component alone at 0.175% w/v): 4 out of 4; Δ OD 450 nm = OD450 (time = 16 hours) - OD450 (time zero), Mean ([1]; component alone at 0.175% w/v): −1.30; Δ OD 590 nm OD590 (time = 16 hours) - OD590 (time zero), Mean ([1]; component alone at 0.175% w/v): 0.47 |
| CC(C)(C)c1ccccc1O [2-tert-butylphenol] | 4 out of 4 | −1.58 | 0.22 | 1.00 | – | 2000 | – | – | – | 4 out of 4 | −1.48 | 0.30 | 4 out of 4 | −1.50 | 0.28 | No. of replicates showing growth (out of 4) ([1]; component alone at 0.175% w/v): 4 out of 4; Δ OD 450 nm = OD450 (time = 16 hours) - OD450 (time zero), Mean ([1]; component alone at 0.175% w/v): −1.08; Δ OD 590 nm OD590 (time = 16 hours) - OD590 (time zero), Mean ([1]; component alone at 0.175% w/v): 0.57; Phenol MBC %(w/v) [1]: 0.2 %(w/v) |
| Cc1cc(O)cc(C(C)C)c1 [3-isopropyl-5-methylphenol] | – | – | – | 1.00 | – | – | – | – | – | – | – | – | – | – | – | – |
| CCCc1cccc(O)c1 [3-n-propylphenol] | – | – | – | 1.00 | 0.5 | > 2000 | 4 out of 4 | −0.57 | 0.56 | 4 out of 4 | −0.59 | 0.57 | 4 out of 4 | – | – | – |
| CC(C)(C)c1cccc(O)c1 [3-tert-butylphenol] | – | – | – | 1.00 | 0.3 | > 2000 | 4 out of 4 | −0.47 | 0.64 | 4 out of 4 | −0.45 | 0.65 | 4 out of 4 | −0.43 | 0.65 | – |
| Cc1cc(O)ccc1C(C)C [4-isopropyl-3-methylphenol] | 4 out of 4 | −1.52 | 0.25 | 1.00 | – | > 2000 | 4 out of 4 | −1.41 | 0.36 | – | – | – | 4 out of 4 | −1.53 | 0.27 | No. of replicates showing growth (out of 4) ([1]; component alone at 0.1% w/v): 4 out of 4; Δ OD 450 nm = OD450 (time = 16 hours) - OD450 (time zero), Mean ([1]; component alone at 0.1% w/v): −1.50; Δ OD 590 nm OD590 (time = 16 hours) - OD590 (time zero), Mean ([1]; component alone at 0.1% w/v): 0.24 |
| CCCCc1ccc(O)cc1 [4-n-butylphenol] | – | – | – | 1.00 | 0.2 | – | – | – | – | – | – | – | – | – | – | – |
| CCCc1ccc(O)cc1 [4-propylphenol] | – | – | – | 1.00 | – | > 2000 | 4 out of 4 | −1.49 | 0.43 | 4 out of 4 | −1.56 | 0.37 | 4 out of 4 | – | – | – |
| CCC(C)c1ccc(O)cc1 (centres unmarked) [4-sec-butylphenol] | – | – | – | 1.00 | 0.2 | > 2000 | 4 out of 4 | −0.56 | 0.59 | 4 out of 4 | −0.56 | 0.60 | 4 out of 4 | −0.53 | 0.60 | No. of replicates showing growth (out of 4) ([1]; component alone at 0.175% w/v): 4 out of 4; Δ OD 450 nm = OD450 (time = 16 hours) - OD450 (time zero), Mean ([1]; component alone at 0.175% w/v): −0.54; Δ OD 590 nm OD590 (time = 16 hours) - OD590 (time zero), Mean ([1]; component alone at 0.175% w/v): 0.59 |
| Cc1ccc(C(C)C)cc1O [5-isopropyl-2-methylphenol] | – | – | – | 1.00 | – | – | 4 out of 4 | −0.52 | 0.62 | – | – | – | 4 out of 4 | – | – | MBC ([1]; pH 10, read-out: MBC (% w/v)): > 2000 µg/mL; No. of replicates showing growth (out of 4) ([1]; component alone at 0.1% w/v): 4 out of 4; Δ OD 450 nm = OD450 (time = 16 hours) - OD450 (time zero), Mean ([1]; component alone at 0.1% w/v): −0.52; Δ OD 590 nm OD590 (time = 16 hours) - OD590 (time zero), Mean ([1]; component alone at 0.1% w/v): 0.62 |
